# Data reported in patent publication US8063008B2, “Enzymatic production of peracids using perhydrolytic enzymes” (E. I. du Pont de Nemours and Company, priority 2005, dated 2011).
# “And” between values parts separate entries of the source, which are not always exact repeats. Equal values may be shown once.
# Tested on: E. coli ATCC 11229
# Test: Determination of Minimum Biocidal Concentration (MBC), XTT reduction inhibition (Example 21)
# Assay type: cell-based
# Settings: for replicate OD (450 nm): replicates 1-8
# From the text: The method described by J. Gabrielson, et al. (J. Microbiol. Methods 50: 63-73 (2002)) was employed for determination of the Minimum Biocidal Concentration (MBC) of peracids, or for determination of the MBC of hydrogen peroxide and enzyme substrates. The assay method is based on XTT reduction inhibition, where XTT ((2,3-bis[2-methoxy-4-nitro-5-sulfophenyl]-5-[(phenylamino)carbonyl]-2H-tetrazolium, inner salt, monosodium salt) is a redox dye that indicates microbial respiratory activity by a change in optical density (OD) measured at 490 nm or 450 nm. However, there are a variety of other methods available for testing the activity of disinfectants and antiseptics including, but not limited to viable plate counts, direct microscopic counts, dry weight, turbidity measurements, absorbance, and bioluminescence (see, for example Brock, Semour S., Disinfection, Sterilization, and Preservation, 5th edition, Lippincott Williams & Wilkins, Philadelphia, Pa., USA; 2001).
# The filtered enzyme-generated product mixture was diluted 1:5 with sterile water, and the resulting solution was further diluted with sterile water in four 1:1 serial dilutions to obtain the concentrations of PAA and hydrogen peroxide listed in Table 22.
# The 1:5 dilution and four serial dilutions were evaluated for biocidal activity by mixing 0.100 mL of the PAA-containing solution with 0.100 mL of an inoculum containing 2.7×10^6 CFU/mL of E. coli ATCC 11229 (American Type Culture Collection, Manassas, Va.) in Millers LB broth diluted with Butterfield Buffer; eight replicates of each mixture were contained in individual wells of a sterile 96-well microtiter plate. After the resulting cell suspensions were allowed to stand for 10 minutes at room temperature, they were tested for viability using the growth indicator XTT (2,3-bis[2-methoxy-4-nitro-5-sulfophenyl]-5-[(phenylamino)carbonyl]-2H-tetrazolium, inner salt, monosodium salt; CAS RN 111072-31-2) according to the method of Gabrielson et al. (J. Microbiol. Methods, 50:63-73 (2002)).
# Separately, the cell inoculum was treated with sterile solutions of triacetin (Table 24) or hydrogen peroxide in 50 mM phosphate buffer (pH 6.5) (Table 25) at the concentrations present in each of the biocide dilutions in Table 23 to determine the MBC for these components of the biocide solution.
structure (smiles),measurement,setting,value
"CC(=O)OO [Commercially-Available Peracetic Acid, peracetic acid, reference compound]",Minimum Biocidal Concentration (MBC),"E. coli ATCC 11229, 1.35×10^6 CFU/mL, 10 minutes at room temperature, XTT, six-log kill, listed as commercial source of peracetic acid",> 2.3 ppm
same,blank-corrected mean OD,commercial PAA 1.15 ppm,1.138
same,mean replicate OD (450 nm),commercial PAA 1.15 ppm,1.410
same,replicate OD (450 nm),commercial PAA 1.15 ppm,1.343 and 1.377 and 1.368 and 1.378 and 1.324 and 1.386 and 1.734 and 1.367
same,blank-corrected mean OD,commercial PAA 2.3 ppm,0.026
same,mean replicate OD (450 nm),commercial PAA 2.3 ppm,0.298
same,replicate OD (450 nm),commercial PAA 2.3 ppm,0.292 (2×) and 0.291 and 0.294 and 0.303 (2×) and 0.318 and 0.288
same,blank-corrected mean OD,commercial PAA 4.7 ppm,0.027
same,mean replicate OD (450 nm),commercial PAA 4.7 ppm,0.298
same,replicate OD (450 nm),commercial PAA 4.7 ppm,0.294 (2×) and 0.295 and 0.298 and 0.293 and 0.304 and 0.310 and 0.297
same,blank-corrected mean OD,commercial PAA 9.4 ppm,0.024
same,mean replicate OD (450 nm),commercial PAA 9.4 ppm,0.295
same,replicate OD (450 nm),commercial PAA 9.4 ppm,0.290 and 0.294 (2×) and 0.291 and 0.299 and 0.295 and 0.301 and 0.296
same,blank-corrected mean OD,commercial PAA 18.75 ppm,0.024
same,mean replicate OD (450 nm),commercial PAA 18.75 ppm,0.295
same,replicate OD (450 nm),commercial PAA 18.75 ppm,0.289 and 0.288 and 0.296 (2×) and 0.294 and 0.300 and 0.306 and 0.292
CC(=O)OCC(COC(C)=O)OC(C)=O [triacetin],biocidal effect,highest concentration examined (5455 ppm),no biocidal effect
same,blank-corrected mean OD,triacetin 341 ppm,2.156
same,mean replicate OD (450 nm),triacetin 341 ppm,2.571
same,replicate OD (450 nm),triacetin 341 ppm,2.568 and 2.563 and 2.601 and 2.58 and 3.148 and 2.408 and 2.507 and 2.189
same,blank-corrected mean OD,triacetin 682 ppm,1.956
same,mean replicate OD (450 nm),triacetin 682 ppm,2.371
same,replicate OD (450 nm),triacetin 682 ppm,2.304 and 2.310 and 2.560 and 2.601 and 2.605 and 2.213 and 2.156 and 2.218
same,blank-corrected mean OD,triacetin 1364 ppm,1.978
same,mean replicate OD (450 nm),triacetin 1364 ppm,2.393
same,replicate OD (450 nm),triacetin 1364 ppm,2.140 and 2.266 and 2.485 and 2.632 and 2.823 and 2.337 and 2.265 and 2.198
same,blank-corrected mean OD,triacetin 2728 ppm,1.913
same,mean replicate OD (450 nm),triacetin 2728 ppm,2.328
same,replicate OD (450 nm),triacetin 2728 ppm,2.273 and 2.167 and 2.358 and 2.454 and 2.663 and 2.280 and 2.208 and 2.222
same,blank-corrected mean OD,triacetin 5455 ppm,1.835
same,mean replicate OD (450 nm),triacetin 5455 ppm,2.250
same,replicate OD (450 nm),triacetin 5455 ppm,2.229 and 2.124 and 2.263 and 2.407 and 2.539 and 2.210 and 2.136 and 2.091
